Values after ≈ are worked out from the molar mass of the structure shown.
Legend:
Apis mellifera = conditions: acute; duration: 96 hours; dermal; mortality
Bibionidae = conditions: chronic/long-term; duration: 28 days
Colinus virginianus = conditions: reproduction developmental
Cyprinodon variegatus = conditions: acute; duration: 96 hours; mortality
Daphnia magna = conditions: chronic/long-term; duration: 21 days; reproduction
Oncorhynchus mykiss = conditions: acute; duration: 96 hours; mortality
Pimephales promelas = conditions: chronic/long-term; duration: 272 days; growth
Tagia sp. = conditions: acute; duration: 14 days; mortality
Typhlodromus pyri = test: LR50; higher = less toxic; conditions: acute; duration: 7 days; mortality

Work on `C#CCOS(=O)OC1CCCCC1Oc1ccc(C(C)(C)C)cc1` (stereo not drawn) [Propargite] yielded an LD50 (Anas platyrhynchos; acute, oral, unspecified, mortality) greater than 4640 mg/kg, an NOEC (Anas platyrhynchos; reproductive) of 13.5 mg/kg-day and an LD50 (Apis mellifera) of 47.9 µg/piece. The NOEC (Bibionidae) was 0.32 mg/L, the NOEC (Colinus virginianus) was 142 mg/kg-day and the LC50 (Cyprinodon variegatus) was 0.055 µg/mL (≈ 0.157 µM). The NOEC (Daphnia magna) was 0.009 mg/L, the LC50 (Oncorhynchus mykiss) was 0.043 µg/mL (≈ 0.123 µM) and the NOEC (Pimephales promelas) was 0.0057 mg/L. It also gave an LD50 (Rattus norvegicus; acute, oral, mortality) of 2640 mg/kg-day, an NOEL (Rattus norvegicus; chronic) of 6.3 mg/kg-day and an LC50 (Tagia sp.) of 378 mg/kg. For the same molecule, the LR50 (Typhlodromus pyri) was 4.5 g/ha.
